Test results from patent US20220281848A1, “PYRAZOLE-SUBSTITUTED PYRROLIDINONES AS HERBICIDES” (FMC Corporation, priority 2019, published 2022).

System: plants
Experiment: Test D pre-emergence, other plants of Tables D1 and D3
Type: in vivo
Settings: preemergent, 20 DAA
Outline: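 Damage was rated visually from 0 (none) to 100 (total), at 20 DAA for pre-emergence and 15 d for post-emergence. Plants grew from safener-treated seed in a glasshouse at 24/18° C. or 20/16° C. day/night, 65% humidity, watered twice daily.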

CCn1nc([C@H]2CN(C)C(=O)[C@@H]2C(=O)Nc2cccc(F)c2F)c2c(F)cccc21 [Compound 7]
20: damage to plant (100=total damage to plant; 0=no damage to plant), CYPES (rate 500) | damage to plant (100=total damage to plant; 0=no damage to plant), PANMI (rate 500)
0: damage to plant (100=total damage to plant; 0=no damage to plant), ABUTH (rate 15) | damage to plant (100=total damage to plant; 0=no damage to plant), ABUTH (rate 30) | damage to plant (100=total damage to plant; 0=no damage to plant), ABUTH (rate 60) | damage to plant (100=total damage to plant; 0=no damage to plant), ABUTH (rate 130) | damage to plant (100=total damage to plant; 0=no damage to plant), ABUTH (rate 250) | damage to plant (100=total damage to plant; 0=no damage to plant), AMARE (rate 15) | damage to plant (100=total damage to plant; 0=no damage to plant), AMARE (rate 30) | damage to plant (100=total damage to plant; 0=no damage to plant), AMARE (rate 60) | damage to plant (100=total damage to plant; 0=no damage to plant), AMARE (rate 130) | damage to plant (100=total damage to plant; 0=no damage to plant), AMARE (rate 250) | damage to plant (100=total damage to plant; 0=no damage to plant), AMARE (rate 500) | damage to plant (100=total damage to plant; 0=no damage to plant), BIDPI (rate 15) | damage to plant (100=total damage to plant; 0=no damage to plant), BIDPI (rate 30) | damage to plant (100=total damage to plant; 0=no damage to plant), BIDPI (rate 60) | damage to plant (100=total damage to plant; 0=no damage to plant), BIDPI (rate 130) | damage to plant (100=total damage to plant; 0=no damage to plant), BIDPI (rate 250) | damage to plant (100=total damage to plant; 0=no damage to plant), BIDPI (rate 500) | damage to plant (100=total damage to plant; 0=no damage to plant), BRAPL (rate 15) | damage to plant (100=total damage to plant; 0=no damage to plant), CYPES (rate 15) | damage to plant (100=total damage to plant; 0=no damage to plant), CYPES (rate 30) | damage to plant (100=total damage to plant; 0=no damage to plant), CYPES (rate 60) | damage to plant (100=total damage to plant; 0=no damage to plant), CYPES (rate 130) | damage to plant (100=total damage to plant; 0=no damage to plant), CYPES (rate 250) | damage to plant (100=total damage to plant; 0=no damage to plant), DIGSA (rate 15) | damage to plant (100=total damage to plant; 0=no damage to plant), ECHCG (rate 15) | damage to plant (100=total damage to plant; 0=no damage to plant), ELEIN (rate 15) | damage to plant (100=total damage to plant; 0=no damage to plant), ELEIN (rate 30) | damage to plant (100=total damage to plant; 0=no damage to plant), EPHHL (rate 15) | damage to plant (100=total damage to plant; 0=no damage to plant), EPHHL (rate 30) | damage to plant (100=total damage to plant; 0=no damage to plant), EPHHL (rate 60) | damage to plant (100=total damage to plant; 0=no damage to plant), GLXMA (rate 15) | damage to plant (100=total damage to plant; 0=no damage to plant), GLXMA (rate 30) | damage to plant (100=total damage to plant; 0=no damage to plant), GLXMA (rate 60) | damage to plant (100=total damage to plant; 0=no damage to plant), GLXMA (rate 130) | damage to plant (100=total damage to plant; 0=no damage to plant), GLXMA (rate 250) | damage to plant (100=total damage to plant; 0=no damage to plant), GLXMA (rate 500) | damage to plant (100=total damage to plant; 0=no damage to plant), IPOHE (rate 15) | damage to plant (100=total damage to plant; 0=no damage to plant), IPOHE (rate 30) | damage to plant (100=total damage to plant; 0=no damage to plant), IPOHE (rate 60) | damage to plant (100=total damage to plant; 0=no damage to plant), IPOHE (rate 130) | damage to plant (100=total damage to plant; 0=no damage to plant), IPOHE (rate 250) | damage to plant (100=total damage to plant; 0=no damage to plant), IPOHE (rate 500) | damage to plant (100=total damage to plant; 0=no damage to plant), ORYSA (rate 15) | damage to plant (100=total damage to plant; 0=no damage to plant), ORYSA (rate 30) | damage to plant (100=total damage to plant; 0=no damage to plant), ORYSA (rate 60) | damage to plant (100=total damage to plant; 0=no damage to plant), ORYSA (rate 130) | damage to plant (100=total damage to plant; 0=no damage to plant), ORYSA (rate 250) | damage to plant (100=total damage to plant; 0=no damage to plant), ORYSA (rate 500) | damage to plant (100=total damage to plant; 0=no damage to plant), PANMI (rate 15) | damage to plant (100=total damage to plant; 0=no damage to plant), PANMI (rate 30) | damage to plant (100=total damage to plant; 0=no damage to plant), PANMI (rate 60) | damage to plant (100=total damage to plant; 0=no damage to plant), PANMI (rate 130) | damage to plant (100=total damage to plant; 0=no damage to plant), PANMI (rate 250) | damage to plant (100=total damage to plant; 0=no damage to plant), SETFA (rate 15) | damage to plant (100=total damage to plant; 0=no damage to plant), SIDSP (rate 15) | damage to plant (100=total damage to plant; 0=no damage to plant), SIDSP (rate 30) | damage to plant (100=total damage to plant; 0=no damage to plant), SIDSP (rate 60) | damage to plant (100=total damage to plant; 0=no damage to plant), SIDSP (rate 130) | damage to plant (100=total damage to plant; 0=no damage to plant), SIDSP (rate 250) | damage to plant (100=total damage to plant; 0=no damage to plant), SORVU (rate 15) | damage to plant (100=total damage to plant; 0=no damage to plant), SORVU (rate 30) | damage to plant (100=total damage to plant; 0=no damage to plant), SORVU (rate 60)
10: damage to plant (100=total damage to plant; 0=no damage to plant), ABUTH (rate 500) | damage to plant (100=total damage to plant; 0=no damage to plant), ELEIN (rate 60) | damage to plant (100=total damage to plant; 0=no damage to plant), EPHHL (rate 250) | damage to plant (100=total damage to plant; 0=no damage to plant), SIDSP (rate 500)
60: damage to plant (100=total damage to plant; 0=no damage to plant), BRAPL (rate 30) | damage to plant (100=total damage to plant; 0=no damage to plant), ELEIN (rate 130)
80: damage to plant (100=total damage to plant; 0=no damage to plant), BRAPL (rate 60) | damage to plant (100=total damage to plant; 0=no damage to plant), BRAPL (rate 130) | damage to plant (100=total damage to plant; 0=no damage to plant), DIGSA (rate 30) | damage to plant (100=total damage to plant; 0=no damage to plant), SETFA (rate 30) | damage to plant (100=total damage to plant; 0=no damage to plant), SETFA (rate 60)
90: damage to plant (100=total damage to plant; 0=no damage to plant), BRAPL (rate 250) | damage to plant (100=total damage to plant; 0=no damage to plant), DIGSA (rate 60) | damage to plant (100=total damage to plant; 0=no damage to plant), ECHCG (rate 30) | damage to plant (100=total damage to plant; 0=no damage to plant), ECHCG (rate 60) | damage to plant (100=total damage to plant; 0=no damage to plant), SETFA (rate 130) | damage to plant (100=total damage to plant; 0=no damage to plant), SETFA (rate 250)
70: damage to plant (100=total damage to plant; 0=no damage to plant), ELEIN (rate 500)
40: damage to plant (100=total damage to plant; 0=no damage to plant), EPHHL (rate 500)
50: damage to plant (100=total damage to plant; 0=no damage to plant), ELEIN (rate 250)
100: damage to plant (100=total damage to plant; 0=no damage to plant), BRAPL (rate 500) | damage to plant (100=total damage to plant; 0=no damage to plant), DIGSA (rate 130) | damage to plant (100=total damage to plant; 0=no damage to plant), DIGSA (rate 250) | damage to plant (100=total damage to plant; 0=no damage to plant), DIGSA (rate 500) | damage to plant (100=total damage to plant; 0=no damage to plant), ECHCG (rate 130) | damage to plant (100=total damage to plant; 0=no damage to plant), ECHCG (rate 250) | damage to plant (100=total damage to plant; 0=no damage to plant), ECHCG (rate 500) | damage to plant (100=total damage to plant; 0=no damage to plant), SETFA (rate 500)
